Test results taken from the supplement of paper PMC10307832.

How the values were obtained:
Assay in all cases: relative viability (nuclei count vs DMSO), 5 days (fraction); higher = more cells survive
Selisistat + Dasatinib = compound: C1CC(C2=C(C1)C3=C(N2)C=CC(=C3)Cl)C(=O)N [Selisistat] + Cc1nc(Nc2ncc(C(=O)Nc3c(C)cccc3Cl)s2)cc(N2CCN(CCO)CC2)n1 [Dasatinib] (partner 0.075 µM)
Procedure, shortened: (§1)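 Relative viability is defined as nuclei in treated wells over nuclei in vehicle wells. Duplicate plates were run and medians reported. Lung cancer cell lines in 1536-well plates were dosed by pin tool one day after seeding, with one drug or with a fixed anchor-drug dose plus five library-drug doses (not always all listed) in √10 steps, and nuclei were counted after 5 days.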

Serdemetan + Trametinib = compound: c1ccc2c(CCNc3ccc(Nc4ccncc4)cc3)c[nH]c2c1 [Serdemetan] + CC(=O)Nc1cccc(-n2c(=O)n(C3CC3)c(=O)c3c(Nc4ccc(I)cc4F)n(C)c(=O)c(C)c32)c1 [Trametinib] (partner 0.02 µM)
Procedure, shortened: as §1

Selisistat + Bortezomib = compound: C1CC(C2=C(C1)C3=C(N2)C=CC(=C3)Cl)C(=O)N [Selisistat] + CC(C)C[C@H](NC(=O)[C@H](Cc1ccccc1)NC(=O)c1cnccn1)B(O)O [Bortezomib] (partner 0.002 µM)
Procedure, shortened: as §1

Serdemetan + Foretinib = compound: c1ccc2c(CCNc3ccc(Nc4ccncc4)cc3)c[nH]c2c1 [Serdemetan] + COc1cc2c(Oc3ccc(NC(=O)C4(C(=O)Nc5ccc(F)cc5)CC4)cc3F)ccnc2cc1OCCCN1CCOCC1 [Foretinib] (partner 0.25 µM)
Procedure, shortened: as §1

Cell Line | relative viability (Selisistat + Dasatinib; first compound 0.4 µM) | relative viability (Selisistat + Dasatinib; first compound 1.265 µM) | relative viability (Selisistat + Dasatinib; first compound 4 µM) | relative viability (Selisistat + Dasatinib; first compound 12.65 µM) | relative viability (Selisistat + Dasatinib; first compound 40 µM) | relative viability (Serdemetan + Trametinib; first compound 0.04 µM) | relative viability (Serdemetan + Trametinib; first compound 0.1265 µM) | relative viability (Serdemetan + Trametinib; first compound 0.4 µM) | relative viability (Serdemetan + Trametinib; first compound 1.265 µM) | relative viability (Serdemetan + Trametinib; first compound 4 µM) | relative viability (Selisistat + Bortezomib; first compound 0.4 µM) | relative viability (Selisistat + Bortezomib; first compound 1.265 µM) | relative viability (Selisistat + Bortezomib; first compound 12.65 µM) | relative viability (Selisistat + Bortezomib; first compound 40 µM) | relative viability (Serdemetan + Foretinib; first compound 0.04 µM) | relative viability (Serdemetan + Foretinib; first compound 0.1265 µM) | relative viability (Serdemetan + Foretinib; first compound 0.4 µM) | relative viability (Serdemetan + Foretinib; first compound 1.265 µM) | relative viability (Serdemetan + Foretinib; first compound 4 µM) | relative viability (Selisistat + Bortezomib; first compound 4 µM)
NCI-H460 | 0.61 | 0.513 | 0.196 | 0.478 | 0.477 | 0.0926 | 0.172 | 0.134 | 0.0472 | 0.0554 | 1.04 | 1.14 | 1.02 | 1.12 | 0.895 | 1.01 | 0.883 | 0.597 | 0.104 | –
NCI-H661 | 0.806 | 0.94 | 0.57 | 0.726 | 0.694 | 0.551 | 0.603 | 0.621 | 0.512 | 0.517 | 0.858 | 0.816 | 0.701 | 0.704 | 1 | 1.01 | 1.02 | 0.924 | 0.796 | 0.664
HCC-15 | 0.716 | 0.625 | – | 0.594 | 0.613 | 0.402 | 0.397 | 0.361 | 0.334 | 0.317 | 1.09 | 1.03 | 1.04 | 1.29 | 1 | 0.993 | 0.944 | 0.854 | 0.707 | –
LCLC-103H | 0.527 | 0.475 | 0.456 | 0.507 | 0.548 | 0.686 | 0.671 | 0.684 | 0.538 | 0.638 | 1.15 | 1.03 | 1.14 | 1.09 | 0.697 | 0.81 | 0.647 | 0.556 | 0.569 | 0.979
NCI-H441 | 0.623 | 0.671 | 0.427 | 0.549 | 0.62 | 0.462 | 0.508 | 0.436 | 0.435 | 0.414 | 0.74 | 0.588 | 0.467 | 0.482 | 1.05 | 0.918 | 0.981 | 0.99 | 0.872 | –
EPLC-272H | 0.352 | 0.33 | – | 0.369 | 0.381 | 0.32 | 0.281 | 0.28 | 0.292 | 0.25 | 0.933 | 0.985 | 0.859 | 0.893 | 0.881 | 0.684 | 0.305 | 0.459 | 0.477 | –
